Experimental data taken from patent US20250230193A1, “CYCLIC COMPOUND HAVING SELECTIVE KRAS INHIBITORY EFFECT ON HRAS AND NRAS” (CHUGAI SEIYAKU KABUSHIKI KAISHA, priority 2022, published 2025).

How the values were obtained:
[1] = target: GDP-bound HRAS wild-type protein (Homo sapiens, UniProt P01112); experiment: Binding to HRAS by surface plasmon resonance (SPR), Single Cycle Kinetics; settings: SPR, GDP-bound HRAS wild-type vs GDP-bound KRAS wild-type
[2] = target: GDP-bound NRAS wild-type protein (Homo sapiens, UniProt P01111); experiment: Binding to NRAS by surface plasmon resonance (SPR), Single Cycle Kinetics; settings: SPR, GDP-bound NRAS wild-type vs GDP-bound KRAS wild-type
GDP-bound NRAS wild-type protein, sequence (P01111 whole entry): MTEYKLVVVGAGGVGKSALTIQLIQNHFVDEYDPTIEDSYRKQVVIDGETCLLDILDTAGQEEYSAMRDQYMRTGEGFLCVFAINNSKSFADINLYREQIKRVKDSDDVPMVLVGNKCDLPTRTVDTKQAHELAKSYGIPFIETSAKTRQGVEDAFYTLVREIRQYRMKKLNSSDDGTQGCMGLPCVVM

GDP-bound HRAS wild-type protein, sequence (P01112 whole entry): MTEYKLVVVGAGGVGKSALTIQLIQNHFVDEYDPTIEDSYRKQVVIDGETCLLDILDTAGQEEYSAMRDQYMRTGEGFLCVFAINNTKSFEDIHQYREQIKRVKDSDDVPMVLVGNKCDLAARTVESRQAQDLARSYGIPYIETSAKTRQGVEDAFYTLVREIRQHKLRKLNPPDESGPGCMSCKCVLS

CCCOC[C@H]1C(=O)N[C@@H]([C@@H](C)CC)C(=O)N(C2CC2)CC(=O)N(C)[C@H]2C/C=C\CCN(C2=O)[C@@H](Cc2ccc(C)cc2)C(=O)N(C)CC(=O)N[C@@H](CCc2ccc(C(F)(F)F)c(OC)c2)C(=O)N2C[C@H](OCC)C[C@H]2C(=O)N(C)C2(CCC2)C(=O)N(C)[C@@H](C2CCCC2)C(=O)N(C)[C@H](C(=O)N(C)C)CC(=O)N1C [PP2330] was tested, and the “HRAS/KRAS (ratio of KD value with respect to HRAS to KD value with respect to KRAS)” value [1] was “A (a compound having 10 or more and less than 20 is denoted as A)” and the “NRAS/KRAS (ratio of KD value with respect to NRAS to KD value with respect to KRAS)” value [2] was “A (a compound having 10 or more and less than 20 is denoted as A)”.

With CCCOC[C@H]1C(=O)N[C@@H]([C@@H](C)CC)C(=O)N2CCC[C@H]2C(=O)N(C)[C@H]2C/C=C\CCN(C2=O)[C@@H](Cc2ccc(C)cc2)C(=O)N(C)CC(=O)N[C@@H](CCc2ccc(C(F)(F)F)c(OC)c2)C(=O)N2C[C@H](OCC)C[C@H]2C(=O)N(C)C2(CCC2)C(=O)N(C)[C@@H](C(CC)CC)C(=O)N(C)[C@H](C(=O)N(C)C)CC(=O)N1C [PP2331] the “HRAS/KRAS (ratio of KD value with respect to HRAS to KD value with respect to KRAS)” value [1] was “A (a compound having 10 or more and less than 20 is denoted as A)” and the “NRAS/KRAS (ratio of KD value with respect to NRAS to KD value with respect to KRAS)” value [2] was “AA (a compound having 20 or more is denoted as AA)”.

CCC[C@H]1C(=O)N[C@@H]([C@@H](C)CC)C(=O)N2CCC[C@H]2C(=O)N(C)[C@H]2C/C=C\CCN(C2=O)[C@@H](Cc2ccc(C)cc2)C(=O)N(C)CC(=O)N[C@@H](CCc2ccc(C(F)(F)F)c(OC)c2)C(=O)N2C[C@H](OCC)C[C@H]2C(=O)N(C)C2(CCC2)C(=O)N(C)[C@@H](C2CCCC2)C(=O)N(C)[C@H](C(=O)N(C)C)CC(=O)N1C [PP2332] was tested, and the “HRAS/KRAS (ratio of KD value with respect to HRAS to KD value with respect to KRAS)” value [1] was “B (a compound having 3 or more and less than 10 is denoted as B)” and the “NRAS/KRAS (ratio of KD value with respect to NRAS to KD value with respect to KRAS)” value [2] was “A (a compound having 10 or more and less than 20 is denoted as A)”.

For CCC[C@H]1C(=O)N[C@@H]([C@@H](C)CC)C(=O)N(C)CC(=O)N(C)[C@H]2C/C=C\CCN(C2=O)[C@@H](CC2CCCCC2)C(=O)N(C)CC(=O)N[C@@H](CCc2ccc(C(F)(F)F)c(OC)c2)C(=O)N2C[C@H](OCC)C[C@H]2C(=O)N(C)C2(CCC2)C(=O)N(C)[C@@H](C(CC)CC)C(=O)N(C)[C@H](C(=O)N(C)C)CC(=O)N1C [PP2333], the “HRAS/KRAS (ratio of KD value with respect to HRAS to KD value with respect to KRAS)” value [1] was “A (a compound having 10 or more and less than 20 is denoted as A)” and the “NRAS/KRAS (ratio of KD value with respect to NRAS to KD value with respect to KRAS)” value [2] was “A (a compound having 10 or more and less than 20 is denoted as A)”.

For CCCOC[C@H]1C(=O)N[C@@H]([C@@H](C)CC)C(=O)N2CCC[C@H]2C(=O)N(C)[C@H]2C/C=C\CCN(C2=O)[C@@H](Cc2ccc(C)cc2)C(=O)N(C)CC(=O)N[C@@H](CCc2ccc(C(F)(F)F)c(OC)c2)C(=O)N2C[C@H](OCC)C[C@H]2C(=O)N(C)C2(CCC2)C(=O)N(C)[C@@H](C2CCCC2)C(=O)N(C)[C@H](C(=O)N(C)C)CC(=O)N1C [PP2334], the “HRAS/KRAS (ratio of KD value with respect to HRAS to KD value with respect to KRAS)” value [1] was “B (a compound having 3 or more and less than 10 is denoted as B)” and the “NRAS/KRAS (ratio of KD value with respect to NRAS to KD value with respect to KRAS)” value [2] was “A (a compound having 10 or more and less than 20 is denoted as A)”.

For CCO[C@@H]1C[C@H]2C(=O)N(C)C3(CCC3)C(=O)N(C)[C@@H](C(CC)CC)C(=O)N(C)[C@H](C(=O)N(C)C)CC(=O)N(C)[C@@H](COC)C(=O)N[C@@H]([C@@H](C)CC)C(=O)N(C)CC(=O)N(C)[C@H]3C/C=C\CCN(C3=O)[C@@H](CC3CCCCC3)C(=O)N(C)CC(=O)N[C@@H](CCc3ccc(C(F)(F)F)c(OC)c3)C(=O)N2C1 [PP2335], the “HRAS/KRAS (ratio of KD value with respect to HRAS to KD value with respect to KRAS)” value [1] was “A (a compound having 10 or more and less than 20 is denoted as A)” and the “NRAS/KRAS (ratio of KD value with respect to NRAS to KD value with respect to KRAS)” value [2] was “A (a compound having 10 or more and less than 20 is denoted as A)”.

For CCC[C@H]1C(=O)N[C@@H]([C@@H](C)CC)C(=O)N(C)CC(=O)N(C)[C@H]2C/C=C\CCN(C2=O)[C@@H](CC2CCCCC2)C(=O)N(C)CC(=O)N[C@@H](CCc2ccc(C(F)(F)F)c(OC)c2)C(=O)N2C[C@H](OCC)C[C@H]2C(=O)N(C)C2(CCC2)C(=O)N(C)[C@@H](C2CCCC2)C(=O)N(C)[C@H](C(=O)N(C)C)CC(=O)N1C [PP2336], the “HRAS/KRAS (ratio of KD value with respect to HRAS to KD value with respect to KRAS)” value [1] was “A (a compound having 10 or more and less than 20 is denoted as A)” and the “NRAS/KRAS (ratio of KD value with respect to NRAS to KD value with respect to KRAS)” value [2] was “A (a compound having 10 or more and less than 20 is denoted as A)”.

CCC[C@H]1C(=O)N[C@@H]([C@@H](C)CC)C(=O)N(C2CC2)CC(=O)N(C)[C@H]2C/C=C\CCN(C2=O)[C@@H](CC2CCCCC2)C(=O)N(C)CC(=O)N[C@@H](CCc2ccc(C(F)(F)F)c(OC)c2)C(=O)N2C[C@H](OCC)C[C@H]2C(=O)N(C)C2(CCC2)C(=O)N(C)[C@@H](C(CC)CC)C(=O)N(C)[C@H](C(=O)N(C)C)CC(=O)N1C [PP2337] was tested, and the “HRAS/KRAS (ratio of KD value with respect to HRAS to KD value with respect to KRAS)” value [1] was “A (a compound having 10 or more and less than 20 is denoted as A)” and the “NRAS/KRAS (ratio of KD value with respect to NRAS to KD value with respect to KRAS)” value [2] was “A (a compound having 10 or more and less than 20 is denoted as A)”.

With CCO[C@@H]1C[C@H]2C(=O)N(C)C3(CCC3)C(=O)N(C)[C@@H](C(CC)CC)C(=O)N(C)[C@H](C(=O)N(C)C)CC(=O)N(C)[C@@H](COC)C(=O)N[C@@H]([C@@H](C)CC)C(=O)N(C3CC3)CC(=O)N(C)[C@H]3C/C=C\CCN(C3=O)[C@@H](CC3CCCCC3)C(=O)N(C)CC(=O)N[C@@H](CCc3ccc(C(F)(F)F)c(OC)c3)C(=O)N2C1 [PP2339] the “HRAS/KRAS (ratio of KD value with respect to HRAS to KD value with respect to KRAS)” value [1] was “A (a compound having 10 or more and less than 20 is denoted as A)” and the “NRAS/KRAS (ratio of KD value with respect to NRAS to KD value with respect to KRAS)” value [2] was “A (a compound having 10 or more and less than 20 is denoted as A)”.

For CCC[C@H]1C(=O)N[C@@H]([C@@H](C)CC)C(=O)N(C2CC2)CC(=O)N(C)[C@H]2C/C=C\CCN(C2=O)[C@@H](CC2CCCCC2)C(=O)N(C)CC(=O)N[C@@H](CCc2ccc(C(F)(F)F)c(OC)c2)C(=O)N2C[C@H](OCC)C[C@H]2C(=O)N(C)C2(CCC2)C(=O)N(C)[C@@H](C2CCCC2)C(=O)N(C)[C@H](C(=O)N(C)C)CC(=O)N1C [PP2340], the “HRAS/KRAS (ratio of KD value with respect to HRAS to KD value with respect to KRAS)” value [1] was “B (a compound having 3 or more and less than 10 is denoted as B)” and the “NRAS/KRAS (ratio of KD value with respect to NRAS to KD value with respect to KRAS)” value [2] was “B (a compound having 3 or more and less than 10 is denoted as B)”.

For CCC[C@H]1C(=O)N[C@@H]([C@@H](C)CC)C(=O)N2CCC[C@H]2C(=O)N(C)[C@H]2C/C=C\CCN(C2=O)[C@@H](CC2CCCCC2)C(=O)N(C)CC(=O)N[C@@H](CCc2ccc(C(F)(F)F)c(OC)c2)C(=O)N2C[C@H](OCC)C[C@H]2C(=O)N(C)C2(CCC2)C(=O)N(C)[C@@H](C(CC)CC)C(=O)N(C)[C@H](C(=O)N(C)C)CC(=O)N1C [PP2341], the “HRAS/KRAS (ratio of KD value with respect to HRAS to KD value with respect to KRAS)” value [1] was “A (a compound having 10 or more and less than 20 is denoted as A)” and the “NRAS/KRAS (ratio of KD value with respect to NRAS to KD value with respect to KRAS)” value [2] was “A (a compound having 10 or more and less than 20 is denoted as A)”.

For CCOC[C@H]1C(=O)N[C@@H]([C@@H](C)CC)C(=O)N(C2CC2)CC(=O)N(C)[C@H]2C/C=C\CCN(C2=O)[C@@H](CC2CCCCC2)C(=O)N(C)CC(=O)N[C@@H](CCc2ccc(C(F)(F)F)c(OC)c2)C(=O)N2C[C@H](OCC)C[C@H]2C(=O)N(C)C2(CCC2)C(=O)N(C)[C@@H](C2CCCC2)C(=O)N(C)[C@H](C(=O)N(C)C)CC(=O)N1C [PP2342], the “HRAS/KRAS (ratio of KD value with respect to HRAS to KD value with respect to KRAS)” value [1] was “A (a compound having 10 or more and less than 20 is denoted as A)” and the “NRAS/KRAS (ratio of KD value with respect to NRAS to KD value with respect to KRAS)” value [2] was “A (a compound having 10 or more and less than 20 is denoted as A)”.
